In series [1] the target is T1, human UGT1A1 (Homo sapiens, UniProt P22309).
T1 construct: purchased
T1 sequence (P22309 26-533): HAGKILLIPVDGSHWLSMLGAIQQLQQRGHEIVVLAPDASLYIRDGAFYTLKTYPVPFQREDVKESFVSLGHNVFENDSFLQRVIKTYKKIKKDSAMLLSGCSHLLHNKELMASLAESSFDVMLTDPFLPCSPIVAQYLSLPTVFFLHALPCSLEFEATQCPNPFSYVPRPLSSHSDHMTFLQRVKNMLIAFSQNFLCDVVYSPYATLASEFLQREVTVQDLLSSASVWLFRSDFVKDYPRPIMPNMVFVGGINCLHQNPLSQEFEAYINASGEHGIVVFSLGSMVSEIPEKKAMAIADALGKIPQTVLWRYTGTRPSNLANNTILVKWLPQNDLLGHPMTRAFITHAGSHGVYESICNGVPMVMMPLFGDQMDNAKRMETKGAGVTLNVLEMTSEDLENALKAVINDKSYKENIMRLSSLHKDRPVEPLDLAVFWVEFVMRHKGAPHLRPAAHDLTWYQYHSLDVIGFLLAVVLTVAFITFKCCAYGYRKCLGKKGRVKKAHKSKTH
As to the kind of experiment: UGT1A1 inhibition (estradiol 3-glucuronide formation, Supersomes). It counts as in vitro ADME. The protocol: The compound of Formula (I) (Example 1) was tested for inhibition of UGT1A1 and was compared against Comparative Example 1. To perform the assay, sample compound was incubated with human UGT1A1 expressed Supersomes™ (0.25 mg/mL), alamethicin (25 μg/mg) and UDPGA (5 mM) in the presence of probe substrate estradiol (10 μM) for 30 mins at 37° C. A selective UGT1A1 inhibitor, atazanavir, was screened alongside the test compounds as a positive control. The reactions were terminated by quenching an aliquot into two volumes of methanol. The samples were centrifuged at 2500 rpm for 30 mins at 4° C., and aliquots of the supernatant were diluted with formic acid in deionised water (final formic acid concentration 0.1%) and internal standard. Cyprotex generic LC-MS/MS conditions were used to monitor estradiol 3-glucuronide formation. A decrease in the formation of the metabolite compared to vehicle control is used to calculate an IC50 value.

In series [2] the target is T2, CYP2B6 (Homo sapiens, UniProt P20813).
T2 construct: from tissue; host or cells: human liver microsomes
T2 sequence (P20813 1-491): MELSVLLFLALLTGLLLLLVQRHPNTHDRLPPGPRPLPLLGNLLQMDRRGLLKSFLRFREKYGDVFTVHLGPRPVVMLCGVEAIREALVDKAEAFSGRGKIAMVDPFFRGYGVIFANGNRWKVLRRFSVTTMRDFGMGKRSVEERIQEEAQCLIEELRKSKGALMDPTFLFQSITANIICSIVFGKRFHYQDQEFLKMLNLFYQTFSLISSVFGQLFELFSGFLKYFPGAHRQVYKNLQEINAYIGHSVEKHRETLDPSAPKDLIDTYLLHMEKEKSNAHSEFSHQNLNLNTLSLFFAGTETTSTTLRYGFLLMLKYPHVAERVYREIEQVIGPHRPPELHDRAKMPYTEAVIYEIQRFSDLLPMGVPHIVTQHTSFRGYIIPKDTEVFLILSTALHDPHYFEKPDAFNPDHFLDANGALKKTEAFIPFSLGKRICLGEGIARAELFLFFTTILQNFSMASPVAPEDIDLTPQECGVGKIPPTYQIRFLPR
As to the kind of experiment: CYP2B6 inhibition in human liver microsomes (bupropion probe). It counts as in vitro ADME. Conditions: human liver microsomes 0.1 mg/mL, bupropion 110 μM, 0.1-25 μM compound. As to the method:
The compound of Formula (I) (Example 1) was assessed for CYP2C8, CYP3A4, and CYP2B6 inhibition and was compared against Comparative Example 1.
Six test compound concentrations (0.1, 0.25, 1, 2.5, 10, 25 μM in DMSO; final DMSO concentration 0.3%) are incubated with human liver microsomes (0.1 mg/mL) and NADPH (1 mM) in the presence of the probe substrate bupropion (110 μM) for 5 min at 37° C. The selective CYP2B6 inhibitor, ticlopidine, is screened alongside the test compounds as a positive control.
For each of the CYP2B6, CYP2C8, and CYP3A4 incubations, the reactions were terminated by methanol addition. The samples were then centrifuged and analyzed by LC-MS/MS. Formic acid in deionised water (final concentration 0.1%) containing internal standard was added to the final sample prior to analysis. A decrease in the formation of the metabolites compared to vehicle control was used to calculate IC50.

SMILES strings stand for the structures.

In general, IC50 refers to the concentration needed to halve the response being measured. Lower therefore signals higher potency. Take `O=C(O)c1ccc(N2CC(O)(c3ccc(OCc4c(-c5c(Cl)cc(F)cc5Cl)noc4C4CC4)cc3Cl)C2)nc1` [Example 1, 6-(3-(2-chloro-4-((5-cyclopropyl-3-(2,6-dichloro-4-fluorophenyl)isoxazol-4-yl)methoxy)phenyl)-3-hydroxyazetidin-1-yl)nicotinic acid]: in series [1] (Example 1 compared against Comparative Example 1), the “UGT1A1 inhibition, comparison of the compounds” value is on record as “most potent UGT1A1 inhibition of the compounds compared”. In series [1] (probe substrate estradiol 10 μM, 30 mins at 37° C.), the IC50 worked out at 440 nM. Further, in series [2], the CYP2B6 inhibition entry is “did not inhibit CYP2B6”.
As to `O=C(O)c1cnc(N2CC(O)(c3ccc(OCc4c(-c5c(Cl)cc(F)cc5Cl)noc4C4CC4)cc3Cl)C2)c(F)c1` [Comparative Example 1, 6-(3-(2-chloro-4-((5-cyclopropyl-3-(2,6-dichloro-4-fluorophenyl)isoxazol-4-yl)methoxy)phenyl)-3-hydroxyazetidin-1-yl)-5-fluoronicotinic acid], in series [2], the CYP2B6 inhibition result was “inhibited CYP2B6”.
